The values below come from patent US20060204537A1, “Silicone blends and composites for drug delivery” (Genzyme Corporation, priority 2002, published 2006).

SMILES strings stand for the structures.

This data set in a line: Release of Paclitaxel from silicone elastomer coatings into calf serum. The settings on record: for steady state release rate of Paclitaxel: calf serum, 37° C. Format: physicochemical. The protocol:
All samples were dip-coated pieces of 316 L stainless steel, measuring 1 cm×1 cm with 26 gauge thickness. The stainless steel pieces were first cleaned by sonicating in 3% Isopanasol, deionised (DI) water, and acetone, each for 6 minutes, then dipped into the silicone composite solutions of the invention. Silicone elastomer solutions were made with DAP® 100% silicone rubber adhesive (from DAP, Inc., Maryland) co-dissolved with either Paclitaxel or Tranilast and 20% (w/w) of polyethylene glycol, MW 3400 (PEG) in methylene chloride. Upon setting, the silicone elastomer solutions formed a film on the steel pieces having a certain thickness. Paclitaxel was loaded at 2% of silicone weight. Tranilast was loaded at 5% of silicone weight. […] All samples were placed in glass culture tubes with 2 mL of either PBS, pH 7.4 or calf serum. The culture tubes were then placed in a shaking water bath at 37° C. and 120 rpm. At each time interval, all of the release media was removed and replaced by fresh solution. Paclitaxel samples were assayed using a competitive inhibition enzyme immunoassay (CIEIA) kit from Hawaii Biotech, Aiea, Hi. Tranilast samples were assayed using UV spectrophotometry at a wavelength of 340 nm.

Regarding `CC(=O)O[C@H]1C(=O)[C@@]2(C)[C@H]([C@H](OC(=O)c3ccccc3)[C@]3(O)C[C@H](OC(=O)[C@H](O)[C@@H](NC(=O)c4ccccc4)c4ccccc4)C(C)=C1C3(C)C)[C@]1(OC(C)=O)CO[C@@H]1C[C@@H]2O` [Paclitaxel], the “duration of almost zero-order release after the initial burst” value (both films, with and without PEG) is 60 days. Further, the “steady state release rate of Paclitaxel” value (films with 20% weight PEG MW 3400) came out at 0.38 ± 0.03 µg/day and the “steady state release rate of Paclitaxel” value (films without PEG) is 0.21 ± 0.03 µg/day. For the same compound, the “initial burst of Paclitaxel” value (films without PEG compared with films with 20% PEG) is given as “higher initial burst”. Also, the “duration of continued but decreased release” value (silicone elastomer coatings) is given as ≤ 140 days.
